This note sets out measurements from patent US12279618B2, “Use of dihydroporphin derived from chlorophyll as plant growth regulator” (Anqing Better Bioengineering Co., Ltd, priority 2019, dated 2025).

Assay type in all cases: in vivo
One assay relates to rice seeds. Description: Rice seed germination experiment (seed soaking method). The method, then:
(§1) Test Method: Ministerial Standard NYT 2061.1-2011, Seed Soaking Method 10 mg of each sample was weighed and put into a 10 ml volumetric flask, dissolved with DMSO, and diluted to volume after being dissolved completely. 1 ml of each diluted monomer solution was put into a 50-1000 ml volumetric flask, added with water, blended and diluted to volume so as to prepare a solution with a concentration of 2 ppm, 0.2 ppm, or 0.02 ppm. The method was substantially the same as that in Example 2 except that rice seeds were used as the crop seeds. The method was substantially the same as that in Example 2, except that the test samples were monomer chlorin e6 and control monomer chlorin e6 iron (III), both at a concentration of 0.02 ppm and the test seeds were corn, soybean, rice and wheat seeds. The preparation method of the control monomer was conducted by referring to CN102273467B.

A further assay relates to corn seeds. Kind of assay: Corn seed germination experiment (seed soaking method, NYT 2061.1-2011). From the text: Test Method: Ministerial Standard NYT 2061.1-2011, Seed Soaking Method
Test samples: crude chlorin, and dihydroporphin monomers including chlorin fG, chlorin e6, pheophorbide, pyropheophorbide, chlorin e4, purpurin-7, purpurin-18, chlorin p6, 15-formyl rhodochlorin, 15-oxymethyl rhodochlorin, 15-oxymethyl rhodochlorin lactone A, 15-hydroxymethyl rhodochlorin, and 15-hydroxymethyl rhodochlorin lactone B, and pure water and iron chlorin e6 (China Pesticide Registration Certificate Number: PD20190031) were used as blank and positive control.
10 mg of each sample was weighed and put into a 10 ml volumetric flask, dissolved with DMSO, and diluted to volume after being dissolved completely. 1 ml of each diluted monomer solution was put into a 50-1000 ml volumetric flask, added with water, blended and diluted to volume so as to prepare a solution with a concentration of 2 ppm, 0.2 ppm, or 0.02 ppm.
The method was substantially the same as that in Example 2, except that the test samples were monomer chlorin e6 and control monomer chlorin e6 iron (III), both at a concentration of 0.02 ppm and the test seeds were corn, soybean, rice and wheat seeds. The preparation method of the control monomer was conducted by referring to CN102273467B.

A further assay deals with wheat seeds. Kind of assay: Wheat seed germination experiment (seed soaking method). The method, then:
as §1, with “that wheat” for “that rice”

The test system of assay [1] is soybean seeds. Description: Soybean seed germination experiment (seed soaking method). Here is the method: Test Method: Ministerial Standard NYT 2061.1-2011, Seed Soaking Method 10 mg of each sample was weighed and put into a 10 ml volumetric flask, dissolved with DMSO, and diluted to volume after being dissolved completely. 1 ml of each diluted monomer solution was put into a 50-1000 ml volumetric flask, added with water, blended and diluted to volume so as to prepare a solution with a concentration of 2 ppm, 0.2 ppm, or 0.02 ppm. The method was substantially the same as that in Example 1 except that soybean seeds were used as the crop seeds, and the samples were crude chlorin, pyropheophorbide, chlorin f, chlorin e6, chlorin e4, purpurin-18, 15-oxymethyl rhodochlorin lactone, and 15-hydroxymethyl rhodochlorin lactone. The method was substantially the same as that in Example 2, except that the test samples were monomer chlorin e6 and control monomer chlorin e6 iron (III), both at a concentration of 0.02 ppm and the test seeds were corn, soybean, rice and wheat seeds. The preparation method of the control monomer was conducted by referring to CN102273467B.

For assay [2], the system named is soybean seeds. The assay is described as above. The conditions noted are these: 0.2 ppm sample solution.
Where [3] appears, read: 0.02 ppm sample solution, seed soaking.
The mark [4] stands for this setting: 0.2 ppm sample solution, seed soaking.
The mark [5] stands for this setting: 2 ppm sample solution, seed soaking.
The mark [6] stands for this setting: soybean seeds, 0.02 ppm sample solution.
[7] abbreviates: soybean seeds, 0.2 ppm sample solution.
Where [8] appears, read: soybean seeds, 2 ppm sample solution.
Where [9] appears, read: comparison of the monomers, 0.02 ppm.

In the case of `C=Cc1c(C)c2cc3nc(c4c5[nH]c(cc6nc(cc1[nH]2)C(C)=C6CC)c(C)c5C(=O)C4)[C@@H](CCC(=O)O)[C@@H]3C` [Pyropheophorbide, pyropheophorbide], the Germination rate % in the assay on rice seeds (0.02 ppm sample solution) was 73%; with rice seeds (0.2 ppm sample solution) it was 74%; in the assay on rice seeds (2 ppm sample solution), 72%; with corn seeds (setting [3]) it was 58%; in the assay with corn seeds (setting [4]), 56%; in the assay on corn seeds (setting [5]), 55%. The Germination rate % in the assay with wheat seeds (0.02 ppm sample solution) is given as 94%; in the assay with wheat seeds (0.2 ppm sample solution) it was 92%; with wheat seeds (2 ppm sample solution) it was 93%; in the assay with soybean seeds [1] (setting [6]), 61%; with soybean seeds [1] (setting [7]), 67%; in the assay on soybean seeds [1] (setting [8]), 65%.

“chlorin e6 iron (III) [reference compound]”: the Germination rate % stood at 58% in the assay on rice seeds (setting [9]); 46% in the assay with corn seeds (setting [9]); 92% in the assay on wheat seeds (setting [9]); 60% in the assay on soybean seeds [1] (comparison of the monomers, soy bean seeds, 0.02 ppm).

Take chlorin f: the Germination rate % in the assay with rice seeds (0.02 ppm sample solution) came out at 76%; in the assay on rice seeds (0.2 ppm sample solution), 72%; in the assay with rice seeds (2 ppm sample solution) it was 66%; with corn seeds (setting [3]), 55%; with corn seeds (setting [4]), 66%; with corn seeds (setting [5]), 58%. The Germination rate % with wheat seeds (0.02 ppm sample solution) is given as 94%; with wheat seeds (0.02 ppm sample solution, listed as chlorin f), “best germination effect”; in the assay with wheat seeds (0.2 ppm sample solution) it was 88%; with wheat seeds (2 ppm sample solution) it was 92%; with soybean seeds [1] (setting [6]), 66%; in the assay with soybean seeds [1] (setting [7]), 54%. Moreover, the Germination rate % with soybean seeds [1] (setting [8]) is 62%; with soybean seeds [1] (soybean seeds, 2 ppm sample solution, listed as chlorin f), “better germination effects than the positive control”.

As to iron chlorin e6 [reference compound], the Germination rate % in the assay on rice seeds (0.02 ppm sample solution) is 78%; in the assay on rice seeds (0.02 ppm sample solution, listed as iron chlorin e6), “best germination effect”; in the assay with rice seeds (0.2 ppm sample solution) it was 76%; in the assay on rice seeds (2 ppm sample solution), 74%; in the assay with rice seeds (2 ppm sample solution, listed as iron chlorin e6), “best germination effect”; with corn seeds (setting [3]) it was 53%. For the same molecule, the Germination rate % in the assay with corn seeds (setting [4]) was 57%; with corn seeds (setting [5]), 64%; in the assay with soybean seeds [2], “most ideal germination effect”; in the assay on wheat seeds (0.02 ppm sample solution) it was 90%; in the assay with wheat seeds (0.2 ppm sample solution), 88%; in the assay with wheat seeds (2 ppm sample solution), 86%. Further, the Germination rate % turned out to be 60% in the assay with soybean seeds [1] (setting [6]), 66% with soybean seeds [1] (setting [7]) and 56% in the assay with soybean seeds [1] (setting [8]).
